In patent publication EP4610269A1, “UROKINASE PLASMINOGEN ACTIVATOR SURFACE RECEPTOR (UPAR) LIGANDS FOR DIAGNOSTIC OR THERAPEUTIC USE” (3B Pharmaceuticals GmbH, priority 2024, dated 2025):
Read-outs that look alike come from different tables or passages of the source. Where a SMILES comes first, the peptide text is derived from it. Bridges are numbered along the chain shown (N, C = ends). [ ]: non-standard residue; d: D form. The star is where a group is joined. DOTA = O=C(O)CN1CCN(CC(=O)O)CCN(CC(=O)*)CCN(CC(=O)O)CC1; Phe(4-guanidino) = N=C(N)Nc1ccc(C[C@H](N)C(=O)O)cc1; X8 = O=C(CN(CC(=O)NC(CO)(CO)CO)CC(=O)*)NC(CO)(CO)CO; Pro(trans-4-F) = O=C(O)[C@@H]1C[C@@H](F)CN1; Pro(cis-4-F) = O=C(O)[C@@H]1C[C@H](F)CN1; Pro(4R-NH2) = N[C@H]1CN[C@H](C(=O)O)C1; NMeR = CN[C@@H](CCCNC(=N)N)C(=O)O; Ser(ΨH,HPro) = O=C(O)[C@@H]1COCN1; Hyp = O=C(O)[C@@H]1C[C@@H](O)CN1; hPhe = N[C@@H](CCc1ccccc1)C(=O)O; 3Pal = N[C@@H](Cc1cccnc1)C(=O)O; Pentanoyl(4-Me) = CC(C)CCC(=O)*; Cit = NC(=O)NCCC[C@H](N)C(=O)O; αMeL = CC(C)C[C@](C)(N)C(=O)O; dNle = CCCC[C@@H](N)C(=O)O; Orn = NCCC[C@H](N)C(=O)O; Api = NC1(C(=O)O)CCNCC1; Nva = CCC[C@H](N)C(=O)O; Pentanoyl = CCCCC(=O)*

Columns and labels:
[1] = target: T1, uPAR-expressing HEC-265 human endometrial adenocarcinoma cells (Homo sapiens, UniProt Q03405); assay: Competitive FACS binding assay; settings: pIC50 category of FACS binding
T1 construct: Cell surface uPAR-expressing HEC-265 human endometrial adenocarcinoma cells; host or cells: HEC-265
How it was run: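 Competitive displacement of a 10 nM biotinylated peptide from HEC-265 cells (1 h, 4 °C, PBS/1% BSA), detected via APC-streptavidin by flow cytometry. pIC50 from four-parameter logistic fit of median fluorescence versus concentration.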

human uPAR (uPAR-Fc) = target: T2, human uPAR (uPAR-Fc) (Homo sapiens, UniProt Q03405); assay: Surface plasmon resonance (SPR) assay, single cycle kinetics; assay type: binding; settings: pKD category for uPAR SPR activity assay, uPAR-Fc on Protein A-Chip, 25°C; for Kd: read-out: pKD CAT (converted)
T2 construct: comprising amino acids Leu23-Arg303 according to UniProt entry Q03405.1; purchased R&D Systems 10378-UK-100
How it was run: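 uPAR-Fc (Leu23-Arg303 extracellular domains, human IgG1 Fc) captured on Protein A chip to ~2000 RU; single-cycle kinetics at 25°C in HEPES running buffer pH 7.4 with 0.1% DMSO. KD from double-referenced sensorgrams fitted to 1:1 Langmuir model, reported as pKD.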

T1 sequence (Q03405 23-335): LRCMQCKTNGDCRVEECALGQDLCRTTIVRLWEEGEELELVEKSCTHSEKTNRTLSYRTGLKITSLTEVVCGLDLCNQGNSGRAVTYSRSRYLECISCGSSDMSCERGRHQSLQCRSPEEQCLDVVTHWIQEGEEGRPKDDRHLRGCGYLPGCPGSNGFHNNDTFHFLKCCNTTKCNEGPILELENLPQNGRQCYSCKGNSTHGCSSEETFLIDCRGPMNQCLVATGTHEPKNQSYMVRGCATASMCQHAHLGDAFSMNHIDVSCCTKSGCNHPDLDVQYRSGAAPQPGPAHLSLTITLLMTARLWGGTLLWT
T2 sequence (Q03405 23-303): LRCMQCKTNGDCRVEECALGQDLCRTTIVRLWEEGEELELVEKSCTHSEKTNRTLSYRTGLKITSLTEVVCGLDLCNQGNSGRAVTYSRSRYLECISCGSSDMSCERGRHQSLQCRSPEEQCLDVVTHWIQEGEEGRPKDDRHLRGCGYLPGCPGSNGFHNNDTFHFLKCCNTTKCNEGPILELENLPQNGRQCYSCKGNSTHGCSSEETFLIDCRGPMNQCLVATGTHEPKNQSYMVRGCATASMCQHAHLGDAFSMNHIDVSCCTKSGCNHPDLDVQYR

Compound	IC50 [1] [µM]	Kd (human uPAR (uPAR-Fc)) [µM]	Kd (human uPAR (uPAR-Fc); single cycle kinetics) [µM]	pIC50 CAT [1]	pKD CAT (human uPAR (uPAR-Fc); single cycle kinetics)
CCCC[C@H]1NC(=O)[C@H](CCCNC(=N)N)NC(=O)[C@@H](NC(=O)[C@H](CC(C)C)NC(=O)[C@H](CC(=O)O)NC(C)=O)CSSC[C@@H](C(N)=O)NC(=O)[C@H](CC(C)C)NC(=O)[C@H]([C@@H](C)CC)NC(=O)[C@H](C)NC(=O)[C@@H]2CCCN2C(=O)[C@H](Cc2ccccc2)NC(=O)[C@H](Cc2ccc(O)cc2)NC1=O [UPAR-274, Ac-Asp-Leu-[Cys-Arg-nle-Tyr-Phe-Pro-Ala-Ile-Leu-Cys]-NH2] (Ac-DLCR[dNle]YFPAILC-NH2; disulfide 3-12)	0.0126 to 0.0316	0.00158 to 0.01	–	–	–
CC[C@H](C)[C@@H]1NC(=O)[C@@H](C)NC(=O)[C@@H]2CCCN2C(=O)[C@H](C)NC(=O)[C@H](Cc2ccc(O)cc2)NC(=O)[C@H](CCC(N)=O)NC(=O)[C@H](CCCNC(N)=O)NC(=O)[C@@H](NC(=O)CCC(C)C)CSSC[C@@H](C(N)=O)NC(=O)[C@H](CC(C)C)NC1=O [UPAR-263, iHex-[Cys-Cit-Gln-Tyr-Ala-Pro-ala-Ile-Leu-Cys]-NH2] ({Pentanoyl(4-Me)}-C[Cit]QYAP[dA]ILC-NH2; disulfide 1-10)	≥ 0.126	> 0.1	–	–	–
CCCCC(=O)N[C@H]1CSSC[C@@H](C(N)=O)NC(=O)[C@H](CCC)NC(=O)[C@H]([C@@H](C)CC)NC(=O)[C@@H]2C[C@@H](O)CN2C(=O)[C@@H]2CCCN2C(=O)[C@H](Cc2ccccc2)NC(=O)[C@H](Cc2ccc(NC(=N)N)cc2)NC(=O)[C@H](CCCCNC(=O)CN2CCN(CC(=O)O)CCN(CC(=O)O)CCN(CC(=O)O)CC2)NC(=O)[C@H](CCCNC(N)=O)NC1=O [UPAR-149, Pent-[Cys-Cit-Lys(DOTA)-Guf-Phe-Pro-Hyp-Ile-Nva-Cys]-NH2] (Pentanoyl-C[Cit]K(DOTA)[Phe(4-guanidino)]FP[Hyp]I[Nva]C-NH2; disulfide 1-10)	≤ 0.01	< 0.00158	–	–	–
CCCCC(=O)N[C@H]1CSSC[C@@H](C(N)=O)NC(=O)[C@H](CCC)NC(=O)[C@H]([C@@H](C)CC)NC(=O)[C@@H]2C[C@@H](N)CN2C(=O)[C@@H]2CCCN2C(=O)[C@H](Cc2ccccc2)NC(=O)[C@H](Cc2ccc(O)cc2)NC(=O)[C@H](CCCNC(=N)N)NC(=O)[C@H](CCCNC(=N)N)NC1=O [UPAR-313, Pent-[Cys-Arg-Arg-Tyr-Phe-Pro-Tap-Ile-Nva-Cys]-NH2] (Pentanoyl-CRRYFP[Pro(4R-NH2)]I[Nva]C-NH2; disulfide 1-10)	≤ 0.01	< 0.00158	–	–	–
CCCCC(=O)N[C@H]1CSSC[C@@H](C(N)=O)NC(=O)[C@H](CCC)NC(=O)[C@H]([C@@H](C)CC)NC(=O)[C@@H]2CCCN2C(=O)[C@@H]2CCCN2C(=O)[C@H](Cc2ccccc2)NC(=O)[C@H](Cc2ccc(O)cc2)NC(=O)[C@H](CCCCNC(=O)CN2CCN(CC(=O)O)CCN(CC(=O)O)CCN(CC(=O)O)CC2)NC(=O)[C@H](CCCNC(N)=O)NC1=O [UPAR-473, Pent-[Cys-Cit-Lys(DOTA)-Tyr-Phe-Pro-Pro-Ile-Nva-Cys]-NH2] (Pentanoyl-C[Cit]K(DOTA)YFPPI[Nva]C-NH2; disulfide 1-10)	≤ 0.01	–	< 0.00158	–	–
CCCCC(=O)N[C@H]1CSSC[C@@H](C(N)=O)NC(=O)[C@H](CCC)NC(=O)[C@H]([C@@H](C)CC)NC(=O)[C@@H]2C[C@@H](O)CN2C(=O)[C@@H]2CCCN2C(=O)[C@H](Cc2ccccc2)NC(=O)[C@H](CCc2ccccc2)NC(=O)[C@H](CCC(N)=O)NC(=O)[C@H](CCCNC(=N)N)NC1=O [UPAR-366, Pent-[Cys-Arg-Gln-Hfe-Phe-Pro-Hyp-Ile-Nva-Cys]-NH2] (Pentanoyl-CRQ[hPhe]FP[Hyp]I[Nva]C-NH2; disulfide 1-10)	0.0126 to 0.0316	–	0.01 to 0.1	–	–
CCCCC(=O)N[C@H]1CSSC[C@@H](C(N)=O)NC(=O)[C@H](CCC)NC(=O)[C@H]([C@@H](C)CC)NC(=O)[C@@H]2C[C@@H](O)CN2C(=O)[C@@H]2C[C@H](F)CN2C(=O)[C@H](Cc2ccccc2)NC(=O)[C@H](Cc2ccc(O)cc2)NC(=O)[C@H](CCCCNC(=O)CN2CCN(CC(=O)O)CCN(CC(=O)O)CCN(CC(=O)O)CC2)NC(=O)[C@H](CCCNC(N)=O)NC1=O [UPAR-365, Pent-[Cys-Cit-Lys(DOTA)-Tyr-Phe-4Cfp-Hyp-Ile-Nva-Cys]-NH2] (Pentanoyl-C[Cit]K(DOTA)YF[Pro(cis-4-F)][Hyp]I[Nva]C-NH2; disulfide 1-10)	≤ 0.01	–	< 0.00158	–	–
Succinyl-Nva-[Cys-Cit-Lys(GdDOTA)-Tyr-Phe-Pro-Hyp-Ile-Nva-Cys]-NH2 [UPAR-460]	–	–	–	A (pIC50 values ≥8.0)	A (pKD values ≥ 8.8)
CC[C@H](C)[C@@H]1NC(=O)C2(CCN(C(=O)CN3CCN(CC(=O)O)CCN(CC(=O)O)CCN(CC(=O)O)CC3)CC2)NC(=O)[C@@H]2CCCN2C(=O)[C@H](Cc2ccccc2)NC(=O)[C@H](Cc2ccc(O)cc2)NC(=O)[C@H](CCC(N)=O)NC(=O)[C@H](CCCNC(N)=O)NC(=O)[C@@H](NC(=O)CCC(C)C)CSSC[C@@H](C(N)=O)NC(=O)[C@H](CC(C)C)NC1=O [UPAR-219, iHex-[Cys-Cit-Gln-Tyr-Phe-Pro-Apc(DOTA)-Ile-Leu-Cys]-NH2] ({Pentanoyl(4-Me)}-C[Cit]QYFP[Api](DOTA)ILC-NH2; disulfide 1-10)	≤ 0.01	0.00158 to 0.01	–	–	–
CCCCC(=O)N[C@H]1CSSC[C@@H](C(N)=O)NC(=O)[C@H](CCC)NC(=O)[C@H]([C@@H](C)CC)NC(=O)[C@@H](CCC(=O)O)NC(=O)[C@@H]2CCCN2C(=O)[C@H](Cc2ccccc2)NC(=O)[C@H](Cc2ccc(O)cc2)NC(=O)[C@H](CCC(N)=O)NC(=O)[C@H](CCCNC(=N)N)NC1=O [UPAR-436, Pent-[Cys-Arg-Gln-Tyr-Phe-Pro-glu-Ile-Nva-Cys]-NH2] (Pentanoyl-CRQYFP[dE]I[Nva]C-NH2; disulfide 1-10)	0.0126 to 0.0316	–	0.01 to 0.1	–	–
CCCCC(=O)N[C@H]1CSSC[C@@H](C(N)=O)NC(=O)[C@H](CCC)NC(=O)[C@H]([C@@H](C)CC)NC(=O)[C@@H]2C[C@@H](F)CN2C(=O)[C@@H]2CCCN2C(=O)[C@H](Cc2cccnc2)NC(=O)[C@H](Cc2ccc(O)cc2)NC(=O)[C@H](CCCCNC(=O)CN2CCN(CC(=O)O)CCN(CC(=O)O)CCN(CC(=O)O)CC2)NC(=O)[C@H](CCCNC(N)=O)NC1=O [UPAR-207, Pent-[Cys-Cit-Lys(DOTA)-Tyr-Mpa-Pro-4Tfp-Ile-Nva-Cys]-NH2] (Pentanoyl-C[Cit]K(DOTA)Y[3Pal]P[Pro(trans-4-F)]I[Nva]C-NH2; disulfide 1-10)	≤ 0.01	0.00158 to 0.01	–	–	–
CCC[C@@H]1NC(=O)[C@H]([C@@H](C)CC)NC(=O)[C@@H]2C[C@@H](O)CN2C(=O)[C@@H]2CCCN2C(=O)[C@H](Cc2ccccc2)NC(=O)[C@H](Cc2ccc(O)cc2)NC(=O)[C@H](CCC(N)=O)NC(=O)[C@H](CCCNC(=N)N)NC(=O)[C@@H](NC(=O)[C@](C)(CC(C)C)NC(C)=O)CSSC[C@@H](C(N)=O)NC1=O [UPAR-485, Ac-Aml-[Cys-Arg-Gln-Tyr-Phe-Pro-Hyp-Ile-Nva-Cys]-NH2] (Ac-[αMeL]CRQYFP[Hyp]I[Nva]C-NH2; disulfide 2-11)	≤ 0.01	–	< 0.00158	–	–
CC[C@H](C)[C@@H]1NC(=O)[C@@H]2C[C@@H](F)CN2C(=O)[C@@H]2CCCN2C(=O)[C@H](Cc2ccccc2)NC(=O)[C@H](Cc2ccc(O)cc2)NC(=O)[C@H](CCC(N)=O)NC(=O)[C@H](CCCNC(N)=O)NC(=O)[C@@H](NC(=O)CCC(C)C)CSSC[C@@H](C(N)=O)NC(=O)[C@H](CC(C)C)NC1=O [UPAR-220, iHex-[Cys-Cit-Gln-Tyr-Phe-Pro-4Tfp-Ile-Leu-Cys]-NH2] ({Pentanoyl(4-Me)}-C[Cit]QYFP[Pro(trans-4-F)]ILC-NH2; disulfide 1-10)	≤ 0.01	< 0.00158	–	–	–
CCCCC(=O)N[C@H]1CSSC[C@@H](C(N)=O)NC(=O)[C@H](CCC)NC(=O)[C@H]([C@@H](C)CC)NC(=O)[C@@H]2C[C@@H](O)CN2C(=O)[C@@H]2CCCN2C(=O)[C@H](Cc2ccccc2)NC(=O)[C@H](Cc2ccc(O)cc2)NC(=O)[C@H](CCCCNC(=O)CN2CCN(CC(=O)O)CCN(CC(=O)O)CCN(CC(=O)O)CC2)NC(=O)[C@H](CCCNC(=O)CN(CC(=O)NC(CO)(CO)CO)CC(=O)NC(CO)(CO)CO)NC1=O [UPAR-224, Pent-[Cys-Orn(Tris-Nta(Tris))-Lys(DOTA)-Tyr-Phe-Pro-Hyp-Ile-Nva-Cys]-NH2] (Pentanoyl-C[Orn](X8)K(DOTA)YFP[Hyp]I[Nva]C-NH2; disulfide 1-10)	≤ 0.01	< 0.00158	–	–	–
CC[C@H](C)[C@@H]1NC(=O)[C@@H](C)NC(=O)[C@@H]2CCCN2C(=O)[C@H](Cc2ccccc2)NC(=O)[C@H](Cc2ccc(O)cc2)NC(=O)[C@H](CCC(N)=O)NC(=O)[C@H](CCCNC(=N)N)N(C)C(=O)[C@@H](NC(=O)CCC(C)C)CSSC[C@@H](C(N)=O)NC(=O)[C@H](CC(C)C)NC1=O [UPAR-287, iHex-[Cys-Nmr-Gln-Tyr-Phe-Pro-ala-Ile-Leu-Cys]-NH2] ({Pentanoyl(4-Me)}-C[NMeR]QYFP[dA]ILC-NH2; disulfide 1-10)	≥ 0.126	> 0.1	–	–	–
CC[C@H](C)[C@@H]1NC(=O)[C@@H]2COCN2C(=O)[C@@H]2CCCN2C(=O)[C@H](Cc2ccccc2)NC(=O)[C@H](Cc2ccc(O)cc2)NC(=O)[C@H](CCC(N)=O)NC(=O)[C@H](CCCNC(N)=O)NC(=O)[C@@H](NC(=O)CCC(C)C)CSSC[C@@H](C(N)=O)NC(=O)[C@H](CC(C)C)NC1=O [UPAR-262, iHex-[Cys-Cit-Gln-Tyr-Phe-Pro-Oxa-Ile-Leu-Cys]-NH2] ({Pentanoyl(4-Me)}-C[Cit]QYFP[Ser(ΨH,HPro)]ILC-NH2; disulfide 1-10)	≤ 0.01	< 0.00158	–	–	–
